Measured values reported in patent publication US20080113041A1, “CALCIUM SUPPLEMENTATION TO REDUCE PROSTATE CANCER RISK” (Trustees of Dartmouth College, priority 2001, published 2008).
Where two headings read alike, the source gives them in different places.

Key:
[1] = test system: prostate cancer; settings: adjuvant arm after prostatic and pelvic radiation therapy; T3, N0, or any T, N1, M0 disease; 71% on observation arm, p=0.52; cited from earlier work
[2] = test system: colorectal adenomas; settings: cited from earlier work
[3] = test system: prostate cancer; settings: for men diagnosed with prostate cancer: 345 men randomized to calcium; for adjusted odds ratio for prostate cancer: calcium vs placebo, 1200 mg elemental calcium (as carbonate); for toxicity: four years of treatment, 3000 mg calcium carbonate
Experimental: To investigate this issue in a randomized study, we investigated the association between prostate cancer risk and treatment assignment in a large, double blind chemoprevention trial of calcium carbonate supplementation for the prevention of large bowel adenomas. Treatment was for four years in two randomized groups: placebo or 1200 mg elemental calcium (as carbonate).
The Calcium Polyp Prevention Study from which the data for this study were obtained involved six clinical centers: the Cleveland Clinic Foundation, Dartmouth-Hitchcock Medical Center, the University of Southern California/Southern California Permanente Medical Group, the University of Iowa, University of Minnesota, and the University of North Carolina Dartmouth was the coordinating center. Human subjects committees at each center approved the study protocol; an independent safety and data monitoring committee reviewed the study semi-annually.
Eligible patients were less than eighty years old, in good health, and without a history of familial polyposis, invasive large bowel cancer, malabsorption syndromes, or any condition which might be worsened by supplemental calcium. We aimed to randomize 860 subjects to have 80% power to detect a 25% reduction in […].
We reviewed data from 2,918 apparently eligible patients. […] We assigned these subjects to calcium or placebo using computer-generated random numbers, blocking by study center. […] Study tablets contained 3000 mg of calcium carbonate (1200 mg of elemental calcium); or, an identical-appearing cellulose/sucrose placebo. The trial was double-blind; neither subjects nor study staff were told the subjects' treatment assignments.
At enrollment and at the time of each of two follow-up colonoscopies, we obtained venous blood specimens in mineral-free tubes. Serum was initially stored at −20° C. or lower, pending shipment to Dartmouth for storage at −70° C. until analysis. At enrollment and the end of the study, we also assessed subjects' diet with a validated food frequency questionnaire (Block et al., Am. J. Epidemiol., 124:453-69, 1986). Every six months, we sent patients questionnaires regarding adherence to study agents; use of medications, over-the-counter drugs and nutritional supplements; and the occurrence of symptoms, illnesses, and hospitalizations. Recruitment into the study began in November 1988 and ended in April 1992. Follow-up ended in December 1996.
To summarize the association between prostate cancer and treatment assignment, we used Kaplan-Meier survival curves as well as odds ratios (OR's) and 95% CI's, computed using logistic regression with adjustment for age, clinical center, and baseline dietary calcium. OR's were calculated for the period from randomization to end of treatment and, to accommodate possible delays in cancer detection and/or latent treatment effects, for the period from randomization to end of treatment plus 12 months (i.e., five years).

[4] = 913 subjects with at least one study examination, calcium carbonate 3 gm daily vs placebo

SMILES | actuarial overall 5-year survival rate [1] | adjusted ratio of the average numbers of adenomas [2, 4] | adjusted risk ratio of any adenoma recurrence [2, 4] | toxicity associated with supplementation ([2]; calcium carbonate 3 gm daily) | men diagnosed with prostate cancer ([3]; after five years of follow-up) | men diagnosed with prostate cancer ([3]; after four years of follow-up) | risk of prostate cancer ([3]; assignment to calcium supplementation vs placebo) | incidence of prostate cancer, Kaplan-Meier curves versus placebo ([3]; by year three of follow-up) | adjusted odds ratio for prostate cancer ([3]; five-year follow-up (end of treatment plus 12 months)) | toxicity [3] | toxicity ([3]; listed as calcium carbonate) | adjusted odds ratio for prostate cancer ([3]; four-year treatment period, adjusted for age, clinical center, baseline dietary calcium)
CC(C)C[C@H](NC(=O)[C@@H](COC(C)(C)C)NC(=O)[C@H](Cc1ccc(O)cc1)NC(=O)[C@H](CO)NC(=O)[C@H](Cc1c[nH]c2ccccc12)NC(=O)[C@H](Cc1cnc[nH]1)NC(=O)[C@@H]1CCC(=O)N1)C(=O)N[C@@H](CCCNC(=N)N)C(=O)N1CCC[C@H]1C(=O)NNC(N)=O [goserelin] | 75% |  |  |  |  |  |  |  |  |  |  | 
O=C([O-])[O-].[Ca+2] [calcium, calcium carbonate] |  | 0.76 | 0.85 | No toxicity | 11 men | 8 men | statistically significant reduction | lower incidence | 0.43 | without toxicity | minimal | 0.54
